What all share (assay): Test D pre-/postemergence plant response
Holding throughout (type): in vivo

Test [1] concerns groundsel (common groundsel, Senecio vulgaris). Conditions: Postemergence. The method in brief:
(§1)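 Seeds were sown in a loam–sand blend and sprayed preemergence with compound in a non-phytotoxic solvent mixture containing surfactant; plants at 2–18 cm (1- to 4-leaf stage) received the same formulation postemergence. After 14 to 21 days in a greenhouse, injury was rated visually against untreated controls (0 = no effect, 100 = complete control).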

Test [2] relates to nutsedge (purple nutsedge, Cyperus rotundus). A digest of the protocol: as §1
The subject of test [3] is ragweed (common ragweed, Ambrosia elatior). A digest of the protocol: as §1
Test [4] deals with guineagrass (Panicum maximum). A digest of the protocol:
as §1

The mark [5] stands for this setting: 62 g ai/ha, scale 0 to 100 (0 no effect, 100 complete control).
[6] abbreviates: 125 g ai/ha, scale 0 to 100 (0 no effect, 100 complete control).
The mark [7] stands for this setting: Postemergence, 31 g ai/ha, scale 0 to 100.
Setting [8] is: Postemergence, 62 g ai/ha, scale 0 to 100 (0 no effect, 100 complete control).
The mark [9] stands for this setting: Postemergence, 125 g ai/ha, scale 0 to 100 (0 no effect, 100 complete control).
[10] abbreviates: Postemergence, 16 g ai/ha, scale 0 to 100.
Where [11] appears, read: Preemergence, 16 g ai/ha, scale 0 to 100, 0 no effect, 100 complete control.
The mark [12] stands for this setting: Preemergence, 31 g ai/ha, scale 0 to 100 (0 no effect, 100 complete control).
[13] abbreviates: Preemergence, 62 g ai/ha, scale 0 to 100.
Setting [14] is: Preemergence, 125 g ai/ha, scale 0 to 100.
Where [15] appears, read: Preemergence, rate not given, scale 0 to 100, 0 no effect, 100 complete control.
The mark [16] stands for this setting: 250 g ai/ha, scale 0 to 100 (0 no effect, 100 complete control).
Where [17] appears, read: Postemergence, 250 g ai/ha, scale 0 to 100 (0 no effect, 100 complete control).
[18] abbreviates: Preemergence, 250 g ai/ha, scale 0 to 100.

From patent US8952024B2, “Herbicidal pyrimidone derivatives” (E I du Pont de Nemours and Company, priority 2009, dated 2015) come the findings set out here.

`COCCn1c(-c2ccccc2)ncc(C(=O)C2=C(O)CCCC2=O)c1=O` [Compound 85]: the “Plant response rating, Groundsel” value came out at 100 in test [1] (31 g ai/ha, scale 0 to 100); 100 in test [1] (setting [5]); 100 in test [1] (setting [6]); 100 in test [1] (16 g ai/ha, scale 0 to 100). For the same molecule, the “Plant response rating, Nutsedge, Purple” value was found to be 30 in test [2] (setting [7]); 50 in test [2] (setting [8]); 65 in test [2] (setting [9]); 5 in test [2] (setting [10]); 70 in test [2] (setting [11]); 75 in test [2] (setting [12]). The “Plant response rating, Nutsedge, Purple” value in test [2] (setting [13]) and in test [2] (setting [14]) was 95 throughout. Besides, the “Plant response rating, Ragweed” value in test [3] (setting [7]) amounted to 80; in test [3] (setting [8]) it was 80; in test [3] (setting [9]), 100; in test [3] (setting [10]) it was 80; in test [3] (setting [11]), 90; in test [3] (setting [12]), 95. In addition, the “Plant response rating, Ragweed” value in test [3] (setting [14]) and in test [3] (setting [15]) was 100 each time. In addition, the “Plant response rating, Guineagrass” value was 20 in test [4] (setting [7]); 35 in test [4] (setting [8]); 60 in test [4] (setting [9]); 10 in test [4] (setting [10]); 0 in test [4] (setting [11]); 10 in test [4] (setting [12]). In addition, the “Plant response rating, Guineagrass” value in test [4] (setting [13]) is given as 70; in test [4] (setting [14]), 75.
Take `COCCn1c(-c2cc(F)cc(F)c2)ncc(C(=O)C2=C(O)C3CCC(C3)C2=O)c1=O` (centres unmarked) [Compound 243, 2-(3,5-difluorophenyl)-5-[(2-hydroxy-4-oxobicyclo[3.2.1]oct-2-en-3-yl)carbonyl]-3-(2-methoxyethyl)-4(3H)-pyrimidinone]: the “Plant response rating, Groundsel” value in test [1] (31 g ai/ha, scale 0 to 100) was 98; in test [1] (setting [5]), 100; in test [1] (setting [6]) it was 100; in test [1] (setting [16]) it was 100. Also, the “Plant response rating, Nutsedge, Purple” value is on record as 20 in test [2] (setting [7]); 25 in test [2] (setting [8]); 25 in test [2] (setting [9]); 50 in test [2] (setting [17]); 20 in test [2] (setting [13]); 100 in test [2] (setting [14]). In addition, the “Plant response rating, Nutsedge, Purple” value in test [2] (setting [18]) was 100. In addition, the “Plant response rating, Ragweed” value is listed as 65 in test [3] (setting [7]); 70 in test [3] (setting [8]); 75 in test [3] (setting [9]); 75 in test [3] (setting [17]); 100 in test [3] (setting [14]); 100 in test [3] (setting [18]). The “Plant response rating, Guineagrass” value in test [4] (setting [7]) is on record as 70; in test [4] (setting [8]), 75; in test [4] (setting [9]), 75; in test [4] (setting [17]), 85; in test [4] (setting [13]), 100; in test [4] (setting [14]), 100. For the same molecule, the “Plant response rating, Guineagrass” value in test [4] (setting [18]) stood at 100.
As for `COCCn1c(-c2cccc(F)c2)ncc(C(=O)C2=C(O)C3CCC(C3)C2=O)c1=O` (centres unmarked) [Compound 235], the “Plant response rating, Groundsel” value turned out to be 100 in test [1] (31 g ai/ha, scale 0 to 100); 100 in test [1] (setting [5]); 100 in test [1] (setting [6]); 100 in test [1] (setting [16]). The “Plant response rating, Nutsedge, Purple” value in test [2] (setting [7]) was 5; in test [2] (setting [8]), 5; in test [2] (setting [9]), 30; in test [2] (setting [17]) it was 40. Further, the “Plant response rating, Ragweed” value in test [3] (setting [7]) came to 70; in test [3] (setting [8]) it was 70; in test [3] (setting [9]), 80; in test [3] (setting [17]) it was 80. The “Plant response rating, Guineagrass” value in test [4] (setting [7]), in test [4] (setting [8]), in test [4] (setting [9]) and in test [4] (setting [17]) was 75 in each case.
Consider `O=C1CCCC(O)=C1C(=O)c1cnc(-c2ccccc2)n(CC2CCCO2)c1=O` (centres unmarked) [Compound 59], for which the “Plant response rating, Groundsel” value is given as 90 in test [1] (31 g ai/ha, scale 0 to 100); 100 in test [1] (setting [5]); 100 in test [1] (setting [6]); 70 in test [1] (16 g ai/ha, scale 0 to 100). Also, the “Plant response rating, Nutsedge, Purple” value in test [2] (setting [7]) was 0; in test [2] (setting [8]) it was 20; in test [2] (setting [9]), 25; in test [2] (setting [10]), 0; in test [2] (setting [11]), 0; in test [2] (setting [12]), 20. Moreover, the “Plant response rating, Nutsedge, Purple” value in test [2] (setting [13]) is given as 20; in test [2] (setting [14]), 80. In addition, the “Plant response rating, Ragweed” value in test [3] (setting [7]) came to 70; in test [3] (setting [9]), 80; in test [3] (setting [10]) it was 70; in test [3] (setting [11]) it was 0; in test [3] (setting [12]), 50; in test [3] (setting [14]) it was 100. Moreover, the “Plant response rating, Guineagrass” value is on record as 10 in test [4] (setting [7]); 20 in test [4] (setting [8]); 20 in test [4] (setting [9]); 10 in test [4] (setting [10]); 0 in test [4] (setting [11]); 0 in test [4] (setting [12]). Moreover, the “Plant response rating, Guineagrass” value in test [4] (setting [13]) and in test [4] (setting [14]) was 0 in each case.
Turning to `COCCCn1c(-c2cccc(F)c2)ncc(C(=O)C2=C(O)C3CCC(C3)C2=O)c1=O` (centres unmarked) [Compound 238], the “Plant response rating, Groundsel” value is recorded as 100 in test [1] (31 g ai/ha, scale 0 to 100); 100 in test [1] (setting [5]); 100 in test [1] (setting [6]); 100 in test [1] (setting [16]). Moreover, the “Plant response rating, Nutsedge, Purple” value is 5 in test [2] (setting [7]), 10 in test [2] (setting [8]), 20 in test [2] (setting [9]) and 20 in test [2] (setting [17]). Also, the “Plant response rating, Ragweed” value in test [3] (setting [7]) was found to be 70; in test [3] (setting [8]), 75; in test [3] (setting [9]) it was 75; in test [3] (setting [17]), 75. Besides, the “Plant response rating, Guineagrass” value in test [4] (setting [7]) was found to be 25; in test [4] (setting [8]), 50; in test [4] (setting [9]), 65; in test [4] (setting [17]), 75.
Consider `CCCCn1c(-c2cc(F)cc(F)c2)ncc(C(=O)C2=C(O)C3CCC(C3)C2=O)c1=O` (centres unmarked) [Compound 245], for which the “Plant response rating, Groundsel” value in test [1] (31 g ai/ha, scale 0 to 100) was determined as 95; in test [1] (setting [5]), 100; in test [1] (setting [6]) it was 100; in test [1] (setting [16]) it was 100. The “Plant response rating, Nutsedge, Purple” value in test [2] (setting [7]) is 5; in test [2] (setting [8]) it was 5; in test [2] (setting [9]) it was 5; in test [2] (setting [17]) it was 20. Also, the “Plant response rating, Ragweed” value was found to be 70 in test [3] (setting [7]), 75 in test [3] (setting [8]), 75 in test [3] (setting [9]) and 75 in test [3] (setting [17]). Further, the “Plant response rating, Guineagrass” value in test [4] (setting [7]) is recorded as 75; in test [4] (setting [8]) it was 75; in test [4] (setting [9]) it was 75; in test [4] (setting [17]), 85.
On to `COCCn1c(-c2cccc(C)c2)ncc(C(=O)C2=C(O)C3CCC(C3)C2=O)c1=O` (centres unmarked) [Compound 233], for which the “Plant response rating, Groundsel” value in test [1] (31 g ai/ha, scale 0 to 100) is given as 50; in test [1] (setting [5]), 90; in test [1] (setting [6]), 100; in test [1] (16 g ai/ha, scale 0 to 100), 30. The “Plant response rating, Nutsedge, Purple” value in test [2] (setting [7]), in test [2] (setting [8]), in test [2] (setting [9]), in test [2] (setting [10]), in test [2] (setting [11]) and in test [2] (setting [12]) was 0 throughout. Also, the “Plant response rating, Nutsedge, Purple” value in test [2] (setting [13]) was found to be 0; in test [2] (setting [14]), 5. In addition, the “Plant response rating, Ragweed” value was 75 in test [3] (setting [7]); 75 in test [3] (setting [8]); 98 in test [3] (setting [9]); 65 in test [3] (setting [10]); 50 in test [3] (setting [11]); 70 in test [3] (setting [12]). For the same molecule, the “Plant response rating, Ragweed” value was 98 in test [3] (setting [14]) and 95 in test [3] (setting [15]). The “Plant response rating, Guineagrass” value in test [4] (setting [7]) is given as 30; in test [4] (setting [8]), 40; in test [4] (setting [9]), 50; in test [4] (setting [10]), 20; in test [4] (setting [11]) it was 0; in test [4] (setting [12]) it was 0. In addition, the “Plant response rating, Guineagrass” value in test [4] (setting [13]) and in test [4] (setting [14]) was 0 throughout.
In the case of `COCCn1c(-c2ccsc2)ncc(C(=O)C2=C(O)C3CCC(C3)C2=O)c1=O` (centres unmarked) [Compound 228], the “Plant response rating, Groundsel” value in test [1] (setting [6]) amounted to 100. Besides, the “Plant response rating, Nutsedge, Purple” value in test [2] (setting [9]) was 15. The “Plant response rating, Ragweed” value in test [3] (setting [9]) is recorded as 75. Besides, in test [4] (setting [9]), the “Plant response rating, Guineagrass” value is 15.
